Test [1] has as its system human dermal micro-vascular endothelial cells (HDMEC). Description: three-dimensional in vitro sprout angiogenesis assay (endothelial cells on gelatin-coated beads in fibrin gel). Conditions: Ch 2 (10 μg); sub-threshold levels of VEGF and b-FGF; P<0.01. The test is classed as cell-based. How it is done: The effect of low molecular weight sulfated saccharides (molecular weight<5000 Dalton) on micro-vascular endothelial cell sprouting (in Vitro 3D Sprout Angiogenesis) is depicted with respect to culture of HDMEC on micro-carrier beads in FIG. 19. 80% confluent HDMEC (Passage 5-10) are mixed with gelatin-coated Cytodex-3 beads with a ratio of 40 cells per bead. If using 24-well plate for the assay, 150-200 beads per well are used. Cells and beads are suspended with 5 ml EBM+15% normal human serum, mixed gently every one hour for first four hours. Then the mixture culture is left in CO2 incubator overnight. The next morning, 10 ml of fresh EBM+15% HS and culture are added for another three hours. Before experiments, the culture of EC-beads is checked. 500 ul of PBS in a well of 24-well plate is added. 100 ul of the EC-bead culture solution is added to the PBS. The number of beads are observed and counted. The concentration of EC-beads is calculated. […]
Culture of HDMEC on micro-carrier beads: 80% confluent HDMEC (Passage 5-10) were mixed with gelatin-coated Cytodex-3 beads with a ratio of 40 cells per bead. […] The number of beads is counted and the concentration of EC-beads is calculated. […]
Growth factors: VEGF (30 ng/ml)+FGF2 (25 ng/ml) CH2: Sulfated Hexasaccharide at 10 ug/ml. […] A quantitative three-dimensional in vitro assay method was utilized to screen compounds for angiogenic activity. […]

The subject of test [2] is chick chorioallantoic membrane (CAM). Description: neovascularization in the chick chorioallantoic membrane (CAM) model. The test is classed as in vivo. As to conditions: n = 8. How it is done: In vivo neovascularization was examined by the method previously described by Auerbach et al. (Auerbach et al., J. Dev. Biol., 41:391-394 (1974), which is hereby incorporated by reference in its entirety). Ten-day old embryos were purchased from Spafas, Inc. (Preston, Conn.) and were incubated at 37° C. with 55% relative humidity. In the dark with the help of a candling lamp, a small hole was punctured in the shell concealing the air sac with a hypodermic needle. A second hole was punctured in the shell on the broadside of the egg directly over an avascular portion of the embryonic membrane, as observed during candling. […]
CAM tissue directly beneath FGF2-saturated filter disk was resected from embryos treated 48 hours prior with test compound or control. […] Digital images of CAM sections adjacent to filters were collected using a 3-CCD color video camera system (Toshiba America, New York, N.Y.) and analyzed using Image-Pro Plus software (Media Cybernetics, Silver Spring, Md.).
CAM tissue directly beneath FGF2-saturated filter disk was resected from embryos treated 48 h prior with compound or control. […] Digital images of CAM sections adjacent to filters were collected using a 3-CCD color video camera system (Toshiba America, New York, N.Y.) and analyzed with the Image-Pro Plus software (Media Cybernetics, Silver Spring, Md.).

As to `COc1cccc(-c2cc(=O)c3ccccc3o2)c1N` [PD9805], in test [1], the “blockade of angiogenesis promoted by Ch 2” value was “blocked”. In test [2] (inhibition of Ch 2 (10 μg) pro-angiogenesis by inhibitor 4.8 μg, P < 0.01), the “Mean % Inhibition ± SEM” value is 71 ± 6 %. Further, the “Mean Branch Points ± SEM” value in test [2] (inhibitor 4.8 μg added to PBS + Ch 2 (10 μg)) is on record as 95 ± 8.

The record behind these values is US7741311B2, “Composition and method for treating occlusive vascular diseases, nerve regeneration, and wound healing” (priority 2005, dated 2010).
